Results as given in patent US20150141435A1, “2-PYRIDONE ANTIMICROBIAL COMPOSITIONS” (Emergent BioSolutions, priority 2010, published 2015).
Structures can show the parent of a compound that is named as a salt.

Tests used:
Format in all cases: cell-based
P. aeruginosa ATCC 27853 = assay: MIC, CLSI broth microdilution (Table 2); settings: Pseudomonas aeruginosa, ATCC27853; Gram negative; MHB, 37° C., 16-20 hours; read-out: MIC P. aeruginosa ATCC 27853
K. pneumoniae ATCC 33495 = assay: MIC, CLSI broth microdilution (Table 2); settings: Klebsiella pneumoniae, ATCC33495; Gram negative; MHB, 37° C., 16-20 hours; read-out: MIC K. pneumoniae ATCC 33495
E. coli ATCC 25922 = assay: MIC, CLSI broth microdilution (Table 2); settings: Escherichia coli, ATCC25922; Gram negative; MHB, 37° C., 16-20 hours; read-out: MIC E. coli ATCC 25922
[1] = test system: S. maltophilia ATCC 17677; assay: MIC, CLSI broth microdilution (Table 2); settings: Stenotrophomonas maltophilia, ATCC17677; Gram negative; MHB, 37° C., 16-20 hours; read-out: MIC S. maltophilia ATCC 17677
H. influenzae ATCC 49247 = assay: MIC, CLSI broth microdilution (Table 2); settings: Haemophilus influenzae, ATCC49247; Gram negative; MHB, 37° C., 16-20 hours; read-out: MIC H. influenzae ATCC 49247
[2] = test system: S. aureus BAA-1720 (MRSA, FQ-R); assay: MIC, CLSI broth microdilution (Table 1); settings: Staphylococcus aureus; Gram positive; MHB, 37° C., 16-20 hours; read-out: MIC S. aureus BAA-1720 (MRSA, FQ-R)
A. baumannii ATCC 19606 = assay: MIC, CLSI broth microdilution (Table 2); settings: Acinetobacter baumannii, ATCC19606; Gram negative; MHB, 37° C., 16-20 hours; read-out: MIC A. baumannii B. ATCC 19606
E. faecium ATCC 19434 = assay: MIC, CLSI broth microdilution (Table 1); settings: Enterococcus faecium, ATCC19434; Gram positive; MHB, 37° C., 16-20 hours; read-out: MIC E. faecium ATCC 19434
S. aureus ATCC 25923 = assay: MIC, CLSI broth microdilution (Table 1); settings: Staphylococcus aureus, ATCC25923; Gram positive; MHB, 37° C., 16-20 hours; read-out: MIC S. aureus ATCC 25923
[3] = test system: S. aureus ATCC 43300 (MRSA, FQ-S); assay: MIC, CLSI broth microdilution (Table 1); settings: Staphylococcus aureus; Gram positive; MHB, 37° C., 16-20 hours; read-out: MIC S. aureus ATCC 43300 (MRSA, FQ-S)
E. faecalis ATCC 29212 = assay: MIC, CLSI broth microdilution (Table 1); settings: Enterococcus faecalis, ATCC29212; Gram positive; MHB, 37° C., 16-20 hours; read-out: MIC E. faecalis ATCC 29212
S. pneumonia ATCC 49619 = assay: MIC, CLSI broth microdilution (Table 1); settings: Streptococcus pneumoniae, ATCC49619; Gram positive; MHB, 37° C., 16-20 hours; read-out: MIC S. pneumonia ATCC 49619

Structure (SMILES) | MIC (P. aeruginosa ATCC 27853) [µg/mL] | MIC (K. pneumoniae ATCC 33495) [µg/mL] | MIC (E. coli ATCC 25922) [µg/mL] | MIC [1] [µg/mL] | MIC (H. influenzae ATCC 49247) [µg/mL] | MIC [2] [µg/mL] | MIC (A. baumannii ATCC 19606) [µg/mL] | MIC (E. faecium ATCC 19434) [µg/mL] | MIC (S. aureus ATCC 25923) [µg/mL] | MIC [3] [µg/mL] | MIC (E. faecalis ATCC 29212) [µg/mL] | MIC (S. pneumonia ATCC 49619) [µg/mL]
Cc1c(-c2cccnc2)ccn2c(=O)c(C(=O)O)cc(C3CC3)c12 [Example 17 K salt, 1-cyclopropyl-9-methyl-4-oxo-8-(pyridin-3-yl)-4H-quinolizine-3-carboxylic acid] | 2 to 4 | 0.125 | 0.064 | 0.25 | ≤ 0.004 | 1 | 0.125 to 0.25 | 1 | 0.016 | 0.016 | 0.064 | 0.125
Cc1c(-c2ccc(N)cc2)ccn2c(=O)c(C(=O)O)cc(C3CC3)c12 [Example 18 K salt, 8-(4-amino-phenyl)-1-cyclopropyl-9-methyl-4-oxo-4H-quinolizine-3-carboxylic acid] | 1 | 0.064 to 0.25 | 0.032 | 0.125 | 0.008 | 0.25 | 0.064 | 0.25 | 0.008 | 0.008 | 0.032 | 0.064
Cc1cc(-c2ccn3c(=O)c(C(=O)O)cc(C4CC4)c3c2C)ccc1N [Example 19 K salt, 8-(4-amino-3-methyl-phenyl)-1-cyclopropyl-9-methyl-4-oxo-4H-quinolizine-3-carboxylic acid] | 2 | 0.25 | 0.064 to 0.125 | 0.25 | 0.008 | 0.25 | 0.125 to 0.25 | 1 | 0.016 | 0.016 | 0.032 | 0.064 to 0.125
Cc1c(-c2ccc3[nH]ccc3c2)ccn2c(=O)c(C(=O)O)cc(C3CC3)c12 [Example 22 K salt, 1-cyclopropyl-8-(1H-indol-5-yl)-9-methyl-4-oxo-4H-quinolizine-3-carboxylic acid] | 4 | 0.25 | 0.125 | 0.5 | 0.016 | 0.5 | 0.25 | 4 | 0.008 | 0.016 | 0.032 | 0.125
Cc1c(-c2ccc(NC(N)=O)cc2)ccn2c(=O)c(C(=O)O)cc(C3CC3)c12 [Example 24 K salt, 1-cyclopropyl-9-methyl-4-oxo-8-(4-ureido-phenyl)-4H-quinolizine-3-carboxylic acid] | 8 | 0.5 | 0.125 to 0.25 | > 8 | 0.016 | > 8 | 4 | 0.5 | 0.032 to 0.064 | 0.032 | 0.032 | 0.032
Cc1c(-c2ccc(N(C)C)cc2)ccn2c(=O)c(C(=O)O)cc(C3CC3)c12 [Example 25 K salt, 1-cyclopropyl-8-(4-(dimethylamino)-phenyl)-9-methyl-4-oxo-4H-quinolizine-3-carboxylic acid] | > 8 | 1 | 0.5 | 1 | 0.064 | 1 | 1 | 8 | 0.064 | 0.064 | 0.125 | 0.25
Cc1c(N2CC[C@H](N)C2)c(F)cn2c(=O)c(C(=O)O)cc(C3CC3)c12 [Example 26 K salt, 8-[(3S)-3-aminopyrrolidin-1-yl]-1-cyclopropyl-7-fluoro-9-methyl-4-oxo-quinolizine-3-carboxylic acid] | 0.125 | 0.016 | ≤ 0.004 | 0.064 | ≤ 0.004 | 1 | 0.064 | 1 | 0.032 | 0.032 | 0.125 | 0.064
Cc1c(N2CC[C@H](N)C2)ccn2c(=O)c(C(=O)O)cc(C3CC3)c12 [Example 27 K salt, 8-[(3S)-3-aminopyrrolidin-1-yl]-1-cyclopropyl-9-methyl-4-oxo-quinolizine-3-carboxylic acid] | 2 | 0.25 | 0.064 to 0.125 | 2 | 0.125 | 8 | 2 | > 8 | 1 | 0.5 | 4 | 2
Cc1c(-c2cc(Cl)c(N)c(Cl)c2)ccn2c(=O)c(C(=O)O)cc(C3CC3)c12 [Example 29 K salt, 1-cyclopropyl-8-(4-amino-3,5-dichloro-phenyl)-9-methyl-4-oxo-4H-quinolizine-3-carboxylic acid] | 4 | 0.5 to 1 | 0.25 | 0.25 | 0.008 to 0.016 | 0.125 | 0.25 | 0.5 | ≤ 0.004 | 0.008 | 0.008 to 0.016 | 0.064
Cc1cc(-c2ccn3c(=O)c(C(=O)O)cc(C4CC4)c3c2C)c(Cl)cc1N [Example 30 K salt, 1-cyclopropyl-8-(4-amino-2-chloro-5-methyl-phenyl)-9-methyl-4-oxo-4H-quinolizine-3-carboxylic acid] | > 8 | 2 to 4 | 1 | 4 | 0.064 | 1 | 1 to 2 | 2 | 0.064 | 0.032 | 0.064 | 0.25
Cc1ccc(-c2ccn3c(=O)c(C(=O)O)cc(C4CC4)c3c2C)cc1 [Example 33 K salt, 1-cyclopropyl-8-(4-methyl-phenyl)-9-methyl-4-oxo-4H-quinolizine-3-carboxylic acid] | 2 | 0.5 to 1 | 0.25 | 0.5 | 0.016 to 0.032 | 0.5 | 0.5 | 0.5 to 1 | 0.016 to 0.032 | 0.016 | 0.064 | 0.25
